These results are taken from patent US20150201650A1, “DIETARY SUPPLEMENT” (Vetafarm Europe Ltd, priority 2009, published 2015).

Where “and” joins values, the source holds several entries; their conditions need not be identical. Identical values can stand only once. Entries after “also recorded” stand apart in the source; their conditions may differ.

The subject of this assay is horses demonstrating agitated behaviour. As to the kind of experiment: Feeding trial of calcium supplements in horses demonstrating agitated behaviour, marked by the feeder. As to conditions: for average mark for horses: mean of the feeders' marks (1 bad, 5 good); for feeder's general comment on the horse's behaviour during the trial / mark provided by the feeder, based on the effect noted in the behaviour of the horse: single horse; for mark provided by the feeder, based on the effect noted in the behaviour of the horse: mark between 1 and 5 (bad is 1, good is 5). The class given is in vivo, horse. From the text: The horses were given doses of calcium chelate calculated to provide a loading dose of 12 grams of calcium per day for five days each week for a period of a month. In the calcium carbonate subject the feed dose was 24 or 48 grams of calcium per day. The feeder provided a mark between 1 and 5 where bad is 1 and good is 5. The mark allocated was based on the effect noted in the behaviour of the horse. The feeder also provided general comments on the horses' behaviour during the trial.

The mark [1] stands for this setting: 12 grams of calcium per day, five days each week for a month.
Where [2] appears, read: loading dose of 12 grams of calcium per day, five days each week for a month, supplement of the calcium chelate only.
Where [3] appears, read: 60 grams of calcium carbonate only.
Where [4] appears, read: 120 grams of calcium carbonate only.

Consider calcium gluconate, for which, under setting [1], the “average mark for horses” value is listed as 3.33 and the “feeder's general comment on the horse's behaviour during the trial” value (“feeder's general comment” for short) is “calmed down without losing any energy; also recorded: did not notice a difference in the horses' behaviour for the first couple of weeks; also recorded: within two weeks the horse was completely calm”. Also, the “mark provided by the feeder, based on the effect noted in the behaviour of the horse” value (“mark provided by the feeder, based” for short) under setting [2] was 4.5 and 2.5 and 3.
`O=C([O-])[O-].[Ca+2]` [calcium carbonate, reference compound]: the “average mark for horses” value (feed dose 24 or 48 grams of calcium per day as calcium carbonate) is given as 1.67. Besides, the “feeder's general comment” value is, setting by setting: under setting [3], “not much difference in the behaviour; also recorded: No significant change”; under setting [4], “small improvement in the horse's behaviour but not sufficient for the horse to be ridden”. For the same molecule, the “mark provided by the feeder, based” value under setting [3] is 1.5 and 1; the “mark provided by the feeder, based” value under setting [4] was 2.5.
As to `O=C([O-])CC(O)(CC(=O)[O-])C(=O)[O-].O=C([O-])CC(O)(CC(=O)[O-])C(=O)[O-].[Ca+2].[Ca+2].[Ca+2]` [calcium citrate], under setting [1], the “average mark for horses” value turned out to be 4.6; the “feeder's general comment” value is “a lot calmer and rational; also recorded: much calmer and friendlier; also recorded: very good response; also recorded: much calmer generally”. The “mark provided by the feeder, based” value under setting [2] was 4.5 and 4 and 5.
